Test results as given in patent US8470765B2, “Polypeptides and antibacterial or antiseptic use of same” (AnGes MG, Inc., priority 2009, dated 2013).
Read-outs that look alike come from different tables or passages of the source. No end group written: not given here.

Legend:
[1] = test system: Micrococcus luteus NBRC13867
[2] = test system: Trichophyton mentagrophytes NBRC6124; conditions: NBRC6124
[3] = test system: methicillin-sensitive Staphylococcus (MSSA) MSSA(ii); test: organism not typed; conditions: methicillin-sensitive Staphylococcus (ii)
Procedure: (§1) Bacteria (Escherichia coli ATCC 25922, Pseudomonas aeruginosa ATCC 27853, Staphylococcus aureus ATCC29213, Klebsiella pneumoniae JCM 1662, Enterobacter cloacae JCM 1232, Enterobacter aerogenes JCM 1235 and Staphylococcus epidermidis JCM 2414) were inoculated to Mueller-Hinton broth: MHB or LB medium, and cultured at a temperature and period suited for each strain. From the thus obtained colonies, each strain was inoculated to a fresh liquid medium and cultured for 16 to 20 hours. Then an aliquot having a volume (10 to 50 appropriate to each strain was inoculated to a fresh liquid medium and cultured for 4 to 6 hours, followed by the measurement of the absorbance at 600 nm. After comparing the turbidity with McFarland #0.5, the resultant was diluted with a medium. Each strain was added to about 10^5 CFU/mL (final concentration).
(§2) Further, the antibacterial activities against the clinical strains collected and isolated from infected patients were also examined. The tests were carried out for two methicillin-resistant Staphylococcus (MRSA) (MRSA (i) and (ii)), two methicillin-sensitive Staphylococcus (MSSA) (MSSA (i) and (ii)), five Pseudomonas aeruginosa, Pseudomonas aeruginosa 1, Pseudomonas aeruginosa 6, Pseudomonas aeruginosa 8. Pseudomonas aeruginosa 9 and Pseudomonas aeruginosa 12, totally 9 clinical strains. The MRSA and MSSA clinical strains were tested by the same method as Staphylococcus aureus ATCC29213, and Pseudomonas clinical strains were tested by the same method as Pseudomonas aeruginosa ATCC 27853.
(§3) Each of the peptide solutions to be tested was diluted with MHB to obtain a solution of 128 μg/mL. This solution was serially diluted with the medium to prepare peptide-containing media having concentrations of 128, 64, 32, 16, 8.0, 4.0 and 2.0 μg/mL respectively. […] By dilution with sterilized purified water to 1.0 mg/mL, positive control-containing media having concentrations of 16, 8, 4, 2, 1.0, 0.25, 0.12 and 0.06 μg/mL, respectively for TOB; 0.5, 0.12 and 0.06 μg/mL, respectively, for OX; and 16, 8, 4, 2, 1.0, 0.25, 0.12, 0.06, 0.06, 0.03 and 0.008 μg/mL, respectively, for MEPM, were prepared.
(§4) To a 96-well microtiter plate, 0.1 mL of the inoculation solution and 0.1 mL of the peptide- or positive control-containing medium having the respective concentration were added, and cultured at 37° C. for 16 to 24 hours (or a time period suited for the growth of the respective strain). The well not containing the sample was used as a negative control. After the culturing, the growth was visually observed, and the minimum concentration at which the growth was inhibited was defined as the minimum growth inhibition concentration (MIC).
(§5) The medium used in this test for bacteria was Mueller-Hinton broth. Independent experiments were carried out twice or more for each strain.

[4] = test system: methicillin-sensitive Staphylococcus (MSSA) MSSA(i); test: organism not typed; conditions: Table 4; clinical strain; first/second value where not identical
Procedure: as §1, §2, §3, §4, §5

[5] = test system: methicillin-resistant Staphylococcus (MRSA) MRSA(i); test: organism not typed; conditions: methicillin-resistant Staphylococcus (i)
Procedure: as §1, §2, §3, §4, §5

[6] = test system: Alternaria alternata JCM5800; conditions: JCM5800
[7] = test system: Fusarium solani JCM11383
[8] = test system: Klebsiella pneumoniae JCM 1662; test: microbe, parasite or virus in culture; assay type: cell-based
Method in brief: (§6)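 Broth microdilution in Mueller-Hinton broth with about 10^5 CFU/mL final inoculum, prepared from log-phase cultures adjusted to McFarland 0.5. Peptides were diluted in MHB from 128 μg/mL and incubated with cells at 37° C for 16 to 24 hours. MIC was the lowest concentration with no visible growth.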

[9] = test system: Staphylococcus aureus ATCC29213; test: microbe, parasite or virus in culture; assay type: cell-based
Method in brief: as §6

[10] = test system: Enterobacter aerogenes JCM 1235; test: microbe, parasite or virus in culture; assay type: cell-based
Method in brief: as §6

[11] = test system: Staphylococcus epidermidis JCM 2414; test: microbe, parasite or virus in culture; assay type: cell-based; conditions: Table 4; two tests, first/second value where not identical
Method in brief: as §6

[12] = test system: Pseudomonas aeruginosa ATCC 27853; test: microbe, parasite or virus in culture; assay type: cell-based
Method in brief: as §6

[13] = test system: Escherichia coli ATCC 25922; test: microbe, parasite or virus in culture; assay type: cell-based
Method in brief: as §6

[14] = test system: Bacteroides fragilis JCM 11019; conditions: JCM 11019
[15] = Table 4, two tests, first/second value where not identical

Substance | MIC Micrococcus luteus [1] [µg/mL] | MIC Trichophyton mentagrophytes [2] [µg/mL] | MIC MSSA(ii) [3] [µg/mL] | MIC MSSA(i) [4] | MIC MRSA(i) [5] [µg/mL] | MIC Alternaria alternata [6] [µg/mL] | MIC Fusarium solani [7, 15] | MIC Klebsiella pneumoniae ([8]; JCM 1662) [µg/mL] | MIC Staphylococcus aureus ([9]; ATCC29213) [µg/mL] | MIC Enterobacter aerogenes [10, 15] | MIC Staphylococcus epidermidis [11] | MIC Pseudomonas aeruginosa ([12]; ATCC 27853) [µg/mL] | MIC Escherichia coli [13, 15] | MIC Bacteroides fragilis [14] [µg/mL] | MIC Klebsiella pneumoniae [8, 15] | MIC Pseudomonas aeruginosa [12, 15] | MIC Escherichia coli ([13]; ATCC 25922) [µg/mL] | MIC Fusarium solani ([7]; JCM11383) [µg/mL] | MIC Staphylococcus aureus [9, 15] | MIC Enterobacter aerogenes ([10]; JCM 1235) [µg/mL]
KLIFLHRLKRELRKRLKRKLR-NH2 [SRP-13] | 2 | 32 | 16 | 16/32 | 64 | 64 | 4/8 | 32 | 32 | 16/64 | 4/8 | 16 | 16/32 | 64 |  |  |  |  |  | 
KLIFLRELRRLRKRLKRKLR-NH2 [SRP-16] | 2 | 32 | 16 | 16/32 | 32 | 64 | 4/8 | 64 | 16 | 16/32 | 8/16 | 16 | 16/32 | 32 |  |  |  |  |  | 
KNLRRIIRKIIHIIKKYG-NH2 [Ovispirin-1, reference compound] | 2 | 32 | 16 | 16/32 | 32 | 64 | 4/8 |  | 16 | 16/32 | 8/16 |  | 8/16 | 1 | 8/16 | 16/32 |  |  |  | 
LIFLHRLKRMRKRLKRKLRL-NH2 [SRP-12] |  |  | 16 | 16 µg/mL | 32 |  |  | 128 | 16 | 32/64 | 4/8 |  |  |  |  | 16/32 | 32 |  |  | 
RLKRMRKRLKRKLRLW-NH2 [SRP-17] | 1 | 16 |  |  |  | 32 |  | 32 |  |  | 4/8 |  | 16/32 | > 128 |  | 32/64 |  | 8 | 16/32 | 128
RLKRMRKRLKRKLRLWHRKRYK-NH2 [SRP-8] | 2 | 32 | 32 | 32/64 | 64 | 32 |  | 32 | 16 |  | 8/16 | 16 | 16/32 | > 128 |  |  |  | 4 |  | 64
